The values that follow come from patent publication US8212014B2, “Artificial base pairs and uses thereof” (Riken, priority 2005, dated 2012).

Where “and” joins values, the source holds several entries; their conditions need not be identical. Equal values may be shown once. Read-outs that look alike come from different tables or passages of the source. [s] = deoxynucleotide carrying the publication's artificial base s, incorporated via its phosphoramidite; [v] = deoxynucleotide carrying the publication's artificial base v, incorporated via its phosphoramidite

The nature of data set [1]: Steady-state fluorescence emission of single-stranded DNAs containing s or v. In kind it is physicochemical. As to conditions: single-stranded 35-mer DNA with two artificial bases. The source says:
(§1) DNA containing an artificial base s or v was synthesized as described, for example, in WO 01/05801 or WO 2005/026187 by using a cyanoethylphosphoroamidite derivative of a nucleotide containing an artificial base s or v in accordance with the DNA chemical synthesis method well known in the art. The sequence of the chemically synthesized 35-mer DNA is as follows: 5′-CAN1N2N3[…]-3′ (SEQ ID NO: 20; DNA in which N1N2N3 is CTs or CTv is referred to as DNA35s1 or DNA35v1, respectively; DNA in which N1N2N3 is Css or Cvv is referred to as DNA35s2a or DNA35v2a, respectively; and DNA in which N1N2N3 is sTs or vTv is referred to as DNA35s2b or DNA35v2b, respectively). The resulting DNA was purified by gel electrophoresis.
(§2) Fluorescence spectra were measured in a buffer containing 10 mM sodium phosphate (pH 7.0), 100 mM NaCl and 0.1 mM EDTA. Emission spectra were recorded with an excitation wavelength of 350 nm for s and 360 nm for v, respectively. The emission spectral bandpass was set to 5 nm.

Data set [2] has as its target T1, T7 RNA polymerase (Escherichia phage T7, UniProt P00573). To be noted: natural NTPs 1 mM, sTP 1 mM; for relative yield of full-length (17-mer) transcript: template DNA containing one unnatural base, natural-base template set to 100%; for full-length transcript formation: template containing two unnatural bases. On the procedure:
Transcription was performed in a 40 mM Tris-HCl (pH 8.0) buffer solution (20 μl) containing 24 mM MgCl2, 2 mM spermidine, 5 mM DTT and 0.01% Triton X-100, in the presence of 1 mM natural NTPs or 1 mM sTP, 2 μCi [γ-^32P]GTP, 2 μM template and 50 units of T7 RNA polymerase (Takara, Kyoto).
The use of [γ-^32P]GTP allowed determination of yields because the transcripts were labeled only at their 5′-end. After incubation at 37° C. for 3 hours, a dye solution (20 μl ) containing 10 M urea and 0.05% BPB was added to stop the reaction. The mixtures were each heated at 75° C. for 3 hours and the products were analyzed on a 20% polyacrylamide-7 M urea gel.
These templates were used to effect transcription for 3 hours, and the transcripts whose 5′-end was labeled with [γ-^32P]GTP were analyzed on a gel. […] The transcripts are labeled with [γ-^32P]GTP at their 5′-end. The relative yield of each transcript was determined in comparison with the yield of a transcript from a template composed only of natural bases, which was set to 100%. Each yield was averaged from 3 to 4 data sets.

Data set [3] is described as follows: Excitation and fluorescence spectra of the fluorescent bases. In kind it is physicochemical. As to conditions: for fluorescence wavelength, center: excited at the stated excitation wavelength.
Data set [4] is described as follows: FRET between s or v in 35-mer DNA and FAM-y or FAM-hx-y in 17-mer RNA (DNA/RNA duplexes). To be noted: for FRET with 17-mer RNA using excessive DNA probe: 10 molar equivalents of DNA against the 17-mer RNA. In kind it is physicochemical.
Text: as §1
17-mer RNA incorporating FAM-y or FAM-hx-y at the N′ position (5′-[…]′AGUG-3′; SEQ ID NO: 21) was prepared through T7 transcription using T7 RNA polymerase and a substrate of FAM-y or FAM-hx-y (FAM-yTP or FAM-hx-yTP). […] The reaction mixture was heated at 75° C. for 3 minutes and the 17-mer transcript was purified by gel electrophoresis.
as §2
The 17-mer RNA site-specifically incorporating FAM-y or FAM-hx-y was hybridized with 35-mer DNA site-specifically containing one or two s or v bases (DNA35s1, 35s2a, 35S2b, 35v1, 35v2a or 35v2b) to measure emission spectra for the DNA/RNA duplex at different temperatures (20° C. and 70° C.).

The target in data set [5] is T1, T7 RNA polymerase. As to conditions: 1 mM yTP; template composed only of natural bases (Entry No. 10).
Protocol: T7 RNA polymerase-mediated transcription reaction was accomplished in a reaction solution containing 40 mM Tris-HCl buffer (pH 8.0), 8 mM MgCl2, 2 mM spermidine, 5 mM DTT, 0.01% Triton X-100, 2 μCi [α-^32P]ATP or 2 μCi [α-^32P]GTP or 2 μCi [α-^32P]CTP or 2 μCi [α-^32P]UTP, 1 mM NTPs, 0-1 mM sTP, 0-1 mM yTP, 0.5 μM template DNA, and 50 units of T7 RNA polymerase (Takara). The transcript was purified by electrophoresis on a 15% polyacrylamide-7 M urea gel, eluted from the gel and then collected by ethanol precipitation in the presence of tRNA (0.05 OD). This sample was dissolved in 10 μl sterilized water, and the resulting solution (8.5 μl) was provided for complete digestion with RNase T2. To the solution (8.5 μl), RNase T2 (1.5 μl, 0.5 U/μl) was added and reacted at 37° C. for 2 hours. A part of this solution was spotted on a TLC plate (Merck, 10 cm×10 cm) and developed two-dimensionally. The developing solutions used for the first and second dimensions were isobutyric acid:concentrated aqueous ammonia:water=66:1:33 (v/v/v) and 2-propanol:hydrochloric acid:water=65:10:25 (v/v/v), respectively.
In this technique, upon incorporation of a radioactive substrate, a nucleotide located at the 5′-side of the substrate can be detected on two-dimensional TLC. […]
Data set [6] concerns the target T1, T7 RNA polymerase. On the procedure: In this example, to study the selectivity of s-Pa base pair during transcription, composition analysis was performed on nucleotides in the full-length (17-mer) transcripts obtained by transcription from Pa, z and natural templates. The transcripts were each internally labeled with any of [α-^32P]UTP, [α-^32P]ATP or [α-^32]GTP, and these transcripts were completely digested with RNase T2 into a nucleoside 3′-phosphate form. The resulting labeled nucleotides were analyzed by 2D-TLC (FIG. 3), and the spots were quantified for each nucleoside 3′-monophosphate (Table 1).
More specifically, transcription was performed in 40 mM Tris-HCl (pH 8.0) buffer (20 μl) containing 24 mM MgCl2, 2 mM spermidine, 5 mM DTT and 0.01% Triton X-100, in the presence of 10 mM GMP, 1 mM natural NTPs (1 mM, N=A, G, C, U), 0, 1 or 3 mM sTP, 2 μCi [γ-^32P]UTP, [γ-^32P]ATP or [γ-^32P]GTP (Amersham), 2 μM template DNA, and 50 units of T7 RNA polymerase (Takara) (Non-patent Documents 14 and 15). After incubation for 3 hours at 37° C., a dye solution was added to stop the transcription.
This mixture was heated at 75° C. for 3 hours and then electrophoresed on a 15% polyacrylamide-7 M urea gel. The full-length product was eluted from the gel and 0.05 A260 units of E. coli tRNA was then added thereto, followed by ethanol precipitation. The transcript was digested at 37° C. for 2 hours with 0.075 U/μl RNase T2 in 15 mM sodium acetate buffer (pH 4.5). […] The digestion products were analyzed by 2D-TLC using a Merck HPTLC plate (100×100 mm, Merck, Darmstadt, Germany). The developing solvents used for the first and second dimensions were isobutyric acid/NH4OH/H2O (66:1:33 v/v/v) and isopropyl alcohol/HCl/H2O (70:15:15 v/v/v), respectively. The products on the TLC plate were analyzed with a bio-imaging analyzer. Each spot was quantified by averaging from 3 to 9 data sets.

T1 sequence (P00573 whole entry): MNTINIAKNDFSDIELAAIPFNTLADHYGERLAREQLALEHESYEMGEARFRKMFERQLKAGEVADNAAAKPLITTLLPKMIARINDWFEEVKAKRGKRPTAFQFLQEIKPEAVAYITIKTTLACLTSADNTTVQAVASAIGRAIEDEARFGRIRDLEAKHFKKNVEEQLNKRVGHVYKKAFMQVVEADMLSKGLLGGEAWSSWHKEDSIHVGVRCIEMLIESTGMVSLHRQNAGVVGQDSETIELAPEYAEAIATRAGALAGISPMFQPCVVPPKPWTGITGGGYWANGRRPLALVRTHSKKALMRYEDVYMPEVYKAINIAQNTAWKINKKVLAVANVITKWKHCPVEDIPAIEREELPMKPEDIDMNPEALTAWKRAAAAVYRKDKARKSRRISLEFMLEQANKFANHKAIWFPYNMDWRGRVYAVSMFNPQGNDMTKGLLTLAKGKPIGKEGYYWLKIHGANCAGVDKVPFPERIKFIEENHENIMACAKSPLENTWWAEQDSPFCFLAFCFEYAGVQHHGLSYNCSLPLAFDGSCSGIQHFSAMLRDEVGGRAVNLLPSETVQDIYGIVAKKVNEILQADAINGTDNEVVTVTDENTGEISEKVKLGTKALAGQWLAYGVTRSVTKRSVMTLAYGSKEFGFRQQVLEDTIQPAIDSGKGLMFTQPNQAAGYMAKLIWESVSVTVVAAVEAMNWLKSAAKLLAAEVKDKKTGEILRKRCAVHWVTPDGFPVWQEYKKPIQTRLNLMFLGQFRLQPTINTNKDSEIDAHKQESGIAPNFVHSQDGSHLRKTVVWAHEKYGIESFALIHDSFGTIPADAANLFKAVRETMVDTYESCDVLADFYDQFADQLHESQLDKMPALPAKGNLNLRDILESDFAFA

Turning to “DNA35s2b: 35-mer DNA (SEQ ID NO: 20) in which N1N2N3 is sTs (DNA CANTNCTCGGGATTCCCTATAGTGAGTCGTATTAT; DNA, [s] at 3, 5, backbone, methylation of C and the base at N not given here)”, the “fluorescence intensity of single-stranded DNA” value (from here on “fluorescence intensity”) in data set [1] is given as “no significant decrease”.

Consider “2-oxo-1,3-dihydroimidazol-1-yl group [reference compound]”, for which, on T7 RNA polymerase [2], the “relative yield of full-length (17-mer) transcript” value was 35% and the full-length transcript formation entry is “no full-length transcript was obtained”.

Take `c1csc(-c2ncnc3[nH]cnc23)c1` [s′, 6-(2-thienyl)-9H-purin-9-yl group]: in data set [3], the “excitation wavelength (maximum)” value came out at 325 nm and the “fluorescence wavelength, center” value is given as 381 nm.

For “DNA35v2b: 35-mer DNA (SEQ ID NO: 20) in which N1N2N3 is vTv (DNA CANTNCTCGGGATTCCCTATAGTGAGTCGTATTAT; DNA, [v] at 3, 5, backbone, methylation of C and the base at N not given here)”, the “fluorescence intensity” value in data set [1] is recorded as “no significant decrease”.

Turning to “DNA35s1: 35-mer DNA (SEQ ID NO: 20) in which N1N2N3 is CTs (DNA CACTNCTCGGGATTCCCTATAGTGAGTCGTATTAT; DNA, [s] at 5, backbone, methylation of C and the base at N not given here)”, the “FRET with 17-mer RNA using excessive DNA probe” value (“FRET with 17-mer RNA” for short) in data set [4] is “completely buried in the background fluorescence”. The “FRET in duplex with 17-mer RNA incorporating FAM-y or FAM-hx-y” value (from here on “FRET in duplex”) in data set [4] (20° C.) was “FRET occurred”; in data set [4] (duplex denatured at 70° C.), “FRET was significantly reduced”.

Take “DNA35v1: 35-mer DNA (SEQ ID NO: 20) in which N1N2N3 is CTv (DNA CACTNCTCGGGATTCCCTATAGTGAGTCGTATTAT; DNA, [v] at 5, backbone, methylation of C and the base at N not given here)”: the “FRET with 17-mer RNA” value in data set [4] is recorded as “completely buried in the background fluorescence”. The “FRET in duplex” value is “FRET occurred” in data set [4] (20° C.) and “FRET was significantly reduced” in data set [4] (duplex denatured at 70° C.).

On to `O=c1[nH]cccc1C1OC(COP(=O)(O)OP(=O)(O)OP(=O)(O)O)C(O)C1O` (stereo not shown) [yTP], for which, on T7 RNA polymerase [5], the “incorporation of yp opposite natural template bases” value is reported as “a slight amount of yp was incorporated”.

For the compound `Nc1nc(-c2cccs2)c2nc[nH]c2n1` [s, 2-amino-6-(2-thienyl)-9H-purin-9-yl group], the “selectivity of s incorporation into RNA opposite Pa in the template DNA” value at T7 RNA polymerase [6] (template containing one Pa base, sTP 1 mM (Table 1, Entry No. 1)) came out at 97%. The “selectivity of s incorporation at the first position” value on T7 RNA polymerase [6] (template containing two Pa bases) is 95%. Also, the “selectivity of s incorporation at the second position” value on T7 RNA polymerase [6] (template containing two Pa bases, sTP 1 mM) is listed as 84-87%. For the same compound, at T7 RNA polymerase [6] (template containing two Pa bases, sTP 3 mM), the “selectivity of s incorporation at the second position” value is 89-93%. In data set [3], the “excitation wavelength (maximum)” value was 352 nm and 299 nm; the “fluorescence wavelength, center” value came to 434 nm. Also, the “quantum yield of the fluorescence” value in data set [3] (pH 7.0) is on record as 0.41.

Take `Nc1nc(-c2nccs2)c2nc[nH]c2n1` [v, 2-amino-6-(2-thiazolyl)-9H-purin-9-yl group]: in data set [3], the “excitation wavelength (maximum)” value was 363 nm and the “fluorescence wavelength, center” value amounted to 461 nm.

Take “DNA35s2a: 35-mer DNA (SEQ ID NO: 20) in which N1N2N3 is Css (DNA CACNNCTCGGGATTCCCTATAGTGAGTCGTATTAT; DNA, [s] at 4, 5, backbone, methylation of C and the base at N not given here)”: the “FRET with 17-mer RNA” value in data set [4] is “FRET was clearly observed”. Also, the “FRET in duplex” value in data set [4] (20° C.) is “FRET occurred efficiently”. The “fluorescence intensity” value in data set [1] is “significantly decreased”.

Turning to “DNA35v2a: 35-mer DNA (SEQ ID NO: 20) in which N1N2N3 is Cvv (DNA CACNNCTCGGGATTCCCTATAGTGAGTCGTATTAT; DNA, [v] at 4, 5, backbone, methylation of C and the base at N not given here)”, the “FRET with 17-mer RNA” value in data set [4] was “FRET was clearly observed”. The “FRET in duplex” value in data set [4] (20° C.) is “FRET occurred efficiently”. The “fluorescence intensity” value in data set [1] is recorded as “significantly decreased”.

In the case of `Nc1nc(-c2cccs2)c2ncn([C@@H]3O[C@H](COP(=O)(O)OP(=O)(O)OP(=O)(O)O)[C@@H](O)[C@H]3O)c2n1` [sTP, 2-amino-6-(2-thienyl)-9-(1-β-D-ribofuranosyl)purine 5′-triphosphate], the “misincorporation of sTP opposite natural bases in the template” value at T7 RNA polymerase [6] (Table 1, Entry Nos. 4 and 6) is “no misincorporation”.

For 2-formyl-1H-pyrrol-1-yl group [Pa], on T7 RNA polymerase [2], the “relative yield of full-length (17-mer) transcript” value amounted to 92% and the full-length transcript formation entry is given as “full-length products were obtained”.
